Reference: patent publication US6376670B1, “Quinoline-indole antimicrobial agents, uses and compositions related thereto” (Sepracor Inc., priority 1997, dated 2002)
Where two headings read alike, the source gives them in different places.

Columns and labels:
[1] = tested on: methicillin-resistant Staphylococcus aureus (MRSA); assay: Determination of MIC values (BHI broth, 96 well microtiter plate); format: cell-based; settings: Staphylococcus aureus, MRSA, BHI broth, read-out: MIC MRSA
Method: (§1) Stock solutions of compounds are prepared with a concentration of 10 mg/mL. These solutions are then diluted 1:4 to give a concentration of 2.5 mg/mL. The compounds are then serially diluted 1:2 for 6 iterations. The concentrations made for each compound are 2.5, 1.25, 0.625, 0.3125, 0.156, 0.078, and 0.039 mg/mL. A control sample (no compound) is run along with each compound tested. All dilutions are made in DMSO.
(§2) All wells of a 96 well microtiter plate are filled with 100 μL of BHI (Brain-Heart Infusion) broth. Columns on the plate are labeled 1-12, and rows are labeled A-H. Each column of wells is used to test one series of diluted compounds. Into each well of 100 μL of BHI broth, 1 μL of diluted compound is placed for a 1:100 dilution. This makes the final concentration of each drug series 25, 12.5, 6.25, 3.125, 1.56, 0.78, 0.39, and 0 μg/mL.
(§3) Test Organism: A sterile 15 mL screw cap tube is filled wth 3 mL of BHI broth. Next, 2-3 colonies of test organism are inoculated into the tube. The tube is then incubated at 37° C. in a CO2 (approx. 7%) atmosphere jar. The organisms are allowed to grow to the density of a 0.5 McFarland standard (10^8 cells/mL). The organism is then inoculated into each well of the microtiter plate containing the diluted compounds to be tested for MIC. The inoculum is 1 μL in volume and represents 10^5 to 10^6 cells/mL.
(§4) After inoculation the plates are covered and incubated at 37° C. and approx. 7-10% CO2 atmosphere overnight (about 16 hours). The plates are then observed for growth, the well with the lowest concentration of drug and no observable growth represents the well determining the MIC.

[2] = tested on: vancomycin-resistant Enterococcus spp. (VRE); assay: as above; format: cell-based; settings: Enterococcus, VRE, BHI broth, read-out: MIC VREF
Method: as §1, §2, §3, §4

[3] = 16 h, 37° C., overnight (about 16 hours)

Row | SMILES | MIC [1, 3] [µg/mL] | MIC [2, 3] [µg/mL] | MIC ([1]; overnight 37° C.) [µg/mL] | MIC ([2]; VREF, overnight 37° C.) [µg/mL] | also measured
1 | NC(=O)C(Cc1ccc2ccccc2c1)NC(=O)c1cc(-c2c[nH]c3ccccc23)nc2ccccc12 (stereo not drawn) [Example 145] | < 7 | < 25 | – | – | –
2 | Cc1ccc2[nH]cc(-c3cc(C(=O)NC(Cc4ccc5ccccc5c4)C(N)=O)c4ccccc4n3)c2c1 (stereo not drawn) [Example 146] | < 7 | < 25 | – | – | –
3 | NC(=O)C(Cc1ccc2ccccc2c1)NC(=O)c1cc(-c2c[nH]c3ccc(Cl)cc23)nc2ccccc12 (stereo not drawn) [Example 147] | < 7 | < 7 | – | – | –
4 | NC(=O)C(Cc1ccc([N+](=O)[O-])cc1)NC(=O)c1cc(-c2c[nH]c3ccc(Cl)cc23)nc2ccccc12 (stereo not drawn) [Example 148] | < 7 | < 25 | – | – | –
5 | O=C(O)c1cc(-c2c[nH]c3ccccc23)nc2ccc(I)cc12 [Example 155] | > 25 | > 25 | – | – | –
6 | Cn1cc(-c2ccc3cc(Cl)ccc3n2)c2cc(Br)ccc21 [Example 167] | > 25 | > 25 | – | – | –
7 | Cn1cc(-c2ccc3ccccc3n2)c2ccccc21 [Example 176] | > 25 | > 25 | – | – | –
8 | Cn1cc(-c2ccc3ccccc3n2)c2cc(Cl)ccc21 [Example 177] | > 25 | > 25 | – | – | –
9 | Cn1cc(-c2ccc3ccccc3n2)c2cc(Br)ccc21 [Example 178] | > 25 | > 25 | – | – | –
10 | Cn1cc(-c2ccc3cc(Cl)ccc3n2)c2cc(Cl)ccc21 [Example 180] | > 25 | > 25 | – | – | –
11 | Fc1cccc2[nH]cc(-c3ccc4ccccc4n3)c12 [Example 182] | > 25 | > 25 | – | – | –
12 | Cc1ccc2[nH]cc(-c3ccc4ccccc4n3)c2c1 [Example 188] | > 25 | > 25 | – | – | –
13 | Cc1cccc2c(-c3ccc4ccccc4n3)c[nH]c12 [Example 189] | < 25 | < 25 | – | – | –
14 | N#Cc1ccc2[nH]cc(-c3ccc4ccccc4n3)c2c1 [Example 190] | > 25 | > 25 | – | – | –
15 | Cc1[nH]c2ccccc2c1-c1ccc2cc(Cl)ccc2n1 [Example 197] | < 7 | > 25 | – | – | –
16 | Cc1ccc2[nH]cc(-c3ccc4cc(Cl)ccc4n3)c2c1 [Example 198] | > 25 | > 25 | – | – | –
17 | Clc1ccc2nc(-c3c(-c4ccccc4)[nH]c4ccccc34)ccc2c1 [Example 203] | – | – | > 25 | > 25 | –
18 | Oc1ccc2[nH]cc(-c3ccc4cc(Cl)ccc4n3)c2c1 [Example 205] | – | – | < 25 | < 25 | –

Row | SMILES | MIC [1, 3] [µg/mL] | MIC [2, 3] [µg/mL] | MIC ([1]; overnight 37° C.) [µg/mL] | MIC ([2]; VREF, overnight 37° C.) [µg/mL] | also measured
19 | O=C(O)c1cc(-c2c[nH]c3ccc(Br)cc23)nc2ccc(C#CCN3CCNCC3)cc12 [Example 207] | – | – | > 25 | < 25 | –
20 | Cn1cc(-c2ccc3cc(Cl)ccc3n2)c2cc(F)ccc21 [Example 210] | – | – | < 7 | > 25 | –
21 | Cn1cc(-c2ccc3cc(Cl)ccc3n2)c2cc(OCc3ccccc3)ccc21 [Example 213] | – | – | < 25 | < 25 | –
22 | COc1ccc2c(c1)c(-c1ccc3cc(Cl)ccc3n1)cn2C [Example 214] | – | – | < 25 | > 25 | –
23 | Cc1ccc2c(c1)c(-c1ccc3cc(Cl)ccc3n1)cn2C [Example 216] | – | – | < 25 | > 25 | –
24 | Cn1c(-c2ccccc2)c(-c2ccc3cc(Cl)ccc3n2)c2ccccc21 [Example 220] | – | – | < 25 | > 25 | –
25 | COc1cc2c(-c3ccc4cc(Cl)ccc4n3)cn(C)c2cc1OC [Example 222] | – | – | > 25 | > 25 | –
26 | CN(CC#Cc1ccc2nc(-c3c[nH]c4ccc(Br)cc34)cc(C(=O)NCc3ccc(CN)cc3)c2c1)C1CCCCC1 [Example 237] | – | – | < 7 | < 7 | –
27 | CN(CC#Cc1ccc2c(C(=O)NCc3ccc(CN)cc3)cc(-c3c[nH]c4ccc(Br)cc34)nc2c1)C1CCCCC1 [Example 264] | – | – | < 7 | < 25 | –
28 | CN(CC#Cc1cccc2c(C(=O)NCc3ccc(CN)cc3)cc(-c3c[nH]c4ccc(Br)cc34)nc12)C1CCCCC1 [Example 265] | – | – | < 7 | < 7 | –
29 | NCc1ccc(CNC(=O)c2cc(-c3c[nH]c4ccc(Br)cc34)nc3cc(Cl)c(C#CCN4CCCCC4)cc23)cc1 [Example 268] | – | – | < 7 | < 7 | –
30 | Cn1cc(-c2cc(C(=O)NCc3ccc(CN)cc3)c3cc(I)ccc3n2)c2cc(Br)ccc21 [Example 269] | – | – | < 7 | < 7 | –
31 | Cc1ccc2nc(-c3c[nH]c4ccc(C#N)cc34)ccc2c1 [Example 433] | – | – | – | – | MIC ([1]; 16 h, 37° C., about 16 hours): < 7 µg/mL; MIC ([2]; 16 h, 37° C., about 16 hours): > 25 µg/mL
32 | NCC1CCCC(CNC(=O)c2cc(-c3c[nH]c4ccc(Br)cc34)nc3ccccc23)C1 (stereo not drawn) [compound 5] | < 7 | < 7 | – | – | –
33 | NCc1ccc(CNC(=O)c2ccc3nc(-c4c[nH]c5ccc(Br)cc45)ccc3c2)cc1 [compound 6] | > 25 | > 25 | – | – | –
34 | NC1CCCCC1NC(=O)c1cc(-c2c[nH]c3ccc(Br)cc23)nc2ccccc12 (stereo not drawn) [compound 10] | < 25 | < 25 | – | – | –
35 | O=C(c1cc(-c2c[nH]c3ccc(Br)cc23)nc2ccccc12)N1CCNCC1 [compound 11] | < 25 | < 25 | – | – | –

More lines, main results first:

Row | MIC [1, 3] [µg/mL] | MIC [2, 3] [µg/mL] | MIC ([1]; overnight 37° C.) [µg/mL] | MIC ([2]; VREF, overnight 37° C.) [µg/mL] | SMILES | also measured
36 | < 7 | > 25 | – | – | NC(=O)C(Cc1ccc([N+](=O)[O-])cc1)NC(=O)c1cc(-c2c[nH]c3ccc(Br)cc23)nc2ccccc12 (stereo not drawn) [Example 149] | –
37 | > 25 | > 25 | – | – | NCc1ccc(CNC(=O)c2cc(-c3c[nH]c4ccc(Br)cc34)nc3cc4c(cc23)OCCO4)cc1 [Example 150] | –
38 | < 7 | < 25 | – | – | Cc1c(-c2c[nH]c3ccc(Br)cc23)nc2ccc(I)cc2c1C(=O)NCc1ccc(CN)cc1 [Example 152] | –
39 | > 25 | > 25 | – | – | O=C(O)c1cc(-c2c[nH]c3ccccc23)nc2c(Cl)cccc12 [Example 156] | –
40 | > 25 | > 25 | – | – | CC(C)(C)OC(=O)n1cc(-c2cc(C(=O)O)c3cccnc3n2)c2cc(Br)ccc21 [Example 157] | –
41 | < 25 | < 25 | – | – | NCc1ccc(CNC(=O)c2cc(-c3c[nH]c4ccccc34)nc3c(Cl)cccc23)cc1 [Example 160] | –
42 | > 25 | > 25 | – | – | NCc1ccc(CNC(=O)c2cc(-c3c[nH]c4ccc(Br)cc34)nc3ncccc23)cc1 [Example 162] | –
43 | > 25 | > 25 | – | – | NCc1cccc(CNC(=O)c2cc(-c3ccsc3)nc3ccc(Br)cc23)c1 [Example 166] | –
44 | > 25 | > 25 | – | – | Cn1cc(-c2ccc3cc(Cl)ccc3n2)c2ccccc21 [Example 179] | –
45 | < 25 | > 25 | – | – | COc1ccc2[nH]cc(-c3ccc4ccccc4n3)c2c1 [Example 185] | –
46 | > 25 | > 25 | – | – | O=[N+]([O-])c1ccc2[nH]cc(-c3ccc4ccccc4n3)c2c1 [Example 186] | –
47 | > 25 | > 25 | – | – | Cc1[nH]c2ccccc2c1-c1ccc2ccccc2n1 [Example 187] | –
48 | > 25 | > 25 | – | – | Fc1cccc2[nH]cc(-c3ccc4cc(Cl)ccc4n3)c12 [Example 192] | –
49 | – | – | > 25 | > 25 | COc1cc2[nH]cc(-c3ccc4cc(Cl)ccc4n3)c2cc1OC [Example 206] | –
50 | – | – | > 25 | > 25 | Cn1cc(-c2ccc3cc(Cl)ccc3n2)c2ccc(F)cc21 [Example 212] | –
51 | – | – | < 7 | < 25 | Cc1c(-c2ccc3cc(Cl)ccc3n2)c2ccccc2n1C [Example 215] | –
52 | – | – | < 7 | < 7 | NCC1CCCC(CNC(=O)c2cc(-c3c[nH]c4ccc(Br)cc34)nc3cc(F)ccc23)C1 (stereo not drawn) [Example 255] | –
53 | – | – | > 25 | > 25 | O=C1c2ccccc2C(=O)N1CCCCn1cc(-c2ccc3cc(Cl)ccc3n2)c2ccc(F)cc21 [Example 267] | –
54 | > 25 | > 25 | – | – | NCCCNC(=O)c1cc(-c2c[nH]c3ccccc23)nc2ccccc12 [compound 1] | –
55 | < 25 | < 25 | – | – | NCCNC(=O)c1cc(-c2c[nH]c3ccc(Br)cc23)nc2ccccc12 [compound 2] | –
56 | < 25 | < 25 | – | – | NCCCNC(=O)c1cc(-c2c[nH]c3ccc(Br)cc23)nc2ccccc12 [compound 3] | –
57 | < 25 | < 7 | – | – | NCc1cccc(CNC(=O)c2cc(-c3c[nH]c4ccc(Br)cc34)nc3ccccc23)c1 [compound 4] | –
58 | > 25 | > 25 | – | – | NCc1ccc(CNC(=O)c2cc(-c3c[nH]c4ccccc34)nc3ccccc23)cc1 [compound 7] | –
59 | > 25 | > 25 | – | – | O=C(c1cc(-c2c[nH]c3ccccc23)nc2ccccc12)N1CCNCC1 [compound 8] | –
60 | < 25 | < 25 | – | – | NCCCCNC(=O)c1cc(-c2c[nH]c3ccc(Br)cc23)nc2ccccc12 [compound 58] | –
